From publication PMC6009853, “Inhibition studies on a panel of human carbonic anhydrases with N1-substituted secondary sulfonamides incorporating thiazolinone or imidazolone-indole tails” (Journal of Enzyme Inhibition and Medicinal Chemistry, 2018) come the findings set out here.

Read-outs that look alike come from different tables or passages of the source.

One experiment has as its target T1, hCA I (Homo sapiens, UniProt P00915).
T1 construct: gene CA1; recombinant, obtained in-house; cytosolic
Put plainly: stopped-flow CO2 hydrase assay. Type of experiment: biochemical. An excerpt: stopped-flow CO2 hydrase assay on hCA I

The next experiment concerns the target T2, hCA II (Homo sapiens, UniProt P00918).
T2 construct: gene CA2; recombinant, obtained in-house
Description: stopped-flow CO2 hydrase assay. The class given is biochemical. The text has this:
stopped-flow CO2 hydrase assay on hCA II

For experiment [1], the target named is T3, hCA IX (Homo sapiens, UniProt Q16790).
T3 construct: gene CA9; recombinant, obtained in-house; tumour-associated isoform
Put plainly: stopped-flow CO2 hydrase assay. Type of experiment: biochemical. An excerpt:
stopped-flow CO2 hydrase assay on hCA IX

Another experiment deals with T4, hCA IV (Homo sapiens, UniProt P22748).
T4 construct: gene CA4; recombinant, obtained in-house; membrane-associated isoform
Description: stopped-flow CO2 hydrase assay. The class given is biochemical.

Experiment [2] in a line: stopped-flow CO2 hydrase assay. Type of experiment: biochemical, Homo sapiens. The conditions noted are these: read-out: hCA I.
Experiment [3] concerns the target T3, hCA IX. Description: stopped-flow CO2 hydrase assay. Type of experiment: biochemical. The conditions noted are these: read-out: hCA I.

T4 sequence (P22748 19-284): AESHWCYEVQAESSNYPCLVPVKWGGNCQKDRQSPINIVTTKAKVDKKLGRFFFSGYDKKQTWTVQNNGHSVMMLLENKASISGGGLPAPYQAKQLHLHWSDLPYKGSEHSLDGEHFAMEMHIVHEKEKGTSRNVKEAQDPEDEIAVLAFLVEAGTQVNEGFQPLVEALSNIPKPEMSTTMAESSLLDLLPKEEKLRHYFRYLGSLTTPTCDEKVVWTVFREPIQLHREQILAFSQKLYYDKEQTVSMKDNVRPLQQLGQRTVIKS
T1 sequence (P00915 2-261): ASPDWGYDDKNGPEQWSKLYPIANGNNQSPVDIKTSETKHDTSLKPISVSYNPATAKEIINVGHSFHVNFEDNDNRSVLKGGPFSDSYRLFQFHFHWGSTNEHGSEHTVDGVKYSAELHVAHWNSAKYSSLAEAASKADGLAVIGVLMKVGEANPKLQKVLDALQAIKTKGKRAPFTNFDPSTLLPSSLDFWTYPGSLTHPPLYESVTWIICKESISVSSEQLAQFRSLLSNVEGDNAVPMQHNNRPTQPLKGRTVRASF

Regarding `CC(=O)NS(=O)(=O)c1ccc(NC2=NC(=O)C(=Cc3c[nH]c4ccccc34)S2)cc1` [7b, N-{[4-((5-((1H-indol-3-yl)methylene)-4-oxo-4,5-dihydrothiazol-2-yl)amino)phenyl]sulfonyl} acetamide], the Ki was 7.98 µM at hCA I, > 10 µM at hCA II, 0.778 µM at hCA IX [1] and > 10 µM at hCA IV (read-out: hCA II).

As to `CC(=O)n1cc(C=C2N=C(c3ccccc3)N(c3ccc(S(N)(=O)=O)cc3)C2=O)c2ccccc21` [10a, 4-[4-((1-Acetyl-1H-indol-3-yl)methylene)-5-oxo-2-phenyl-4,5-dihydro-1H-imidazol-1-yl]benzenesulfonamide], the results for the Ki on hCA IX [1] and at hCA IV (read-out: hCA IV) were 0.318 µM and 0.263 µM, respectively.

For the compound `COc1ccc(C2=NC(=Cc3cn(C(C)=O)c4ccccc34)C(=O)N2c2ccc(S(N)(=O)=O)cc2)cc1` [10g, 4-[4-((1-Acetyl-1H-indol-3-yl)methylene)-2–(4-methoxyphenyl)-5-oxo-4,5-dihydro-1H-imidazol-1-yl]benzenesulfonamide], the Ki on hCA I is 0.0937 µM; at hCA II it was 0.602 µM; on hCA IX [1], 0.328 µM; on hCA IV (read-out: hCA IV) it was 2.77 µM.

Consider `NS(=O)(=O)c1ccc(NC2=NC(=O)C(=Cc3c[nH]c4ccccc34)S2)cc1` [7a, 4-{[5-((1H-indol-3-yl)methylene)-4-oxo-4,5-dihydrothiazol-2-yl]amino}benzenesulfonamide], for which the Ki on hCA I was 0.0964 µM; at hCA II, 0.0764 µM; at hCA IX [1] it was 0.308 µM; at hCA IV (read-out: hCA IV), 4.43 µM.

Turning to `NS(=O)(=O)c1ccc(N=Cc2c[nH]c3ccccc23)cc1` [4a, 4-{[(1H-indol-3-yl)methylene]amino}benzenesulfonamide], the Ki was found to be 0.0885 µM at hCA I, 0.576 µM at hCA II, 0.327 µM at hCA IX [1] and 2.74 µM at hCA IV (read-out: hCA IV).

Consider `O=S(=O)(Nc1ncccn1)c1ccc(N=Cc2c[nH]c3ccccc23)cc1` [4c], for which the Ki (in experiment [2]; on hCA I; at hCA IX [3]; at hCA IV (read-out: hCA IV)) was > 10 µM in each case.

Take `CC(=O)NS(=O)(=O)c1ccc(N=Cc2c[nH]c3ccccc23)cc1` [4b, N-{[4-(((1H-indol-3-yl)methylene)amino)phenyl]sulfonyl}acetamide]: the Ki was 8.58 µM at hCA I, > 10 µM on hCA II, 1.62 µM at hCA IX [1] and > 10 µM at hCA IV (read-out: hCA II).

With `O=C1N=C(Nc2ccc(S(=O)(=O)Nc3nccs3)cc2)SC1=Cc1c[nH]c2ccccc12` [7e, 4-{[(5-((1H-indol-3-yl)methylene)-4-oxo-4,5-dihydrothiazol-2-yl)amino]-N-(thiazol-2-yl)] benzenesulfonamide], the Ki (in experiment [2]; at hCA I; at hCA IX [3]; at hCA IV (read-out: hCA IV)) was > 10 µM each time.

`CC(=O)n1cc(C=C2N=C(c3ccccc3)N(c3ccc(S(=O)(=O)N=C(N)N)cc3)C2=O)c2ccccc21` [10f, 4-[4-((1-Acetyl-1H-indol-3-yl)methylene)-5-oxo-2-phenyl-4,5-dihydro-1H-imidazol-1-yl]-N-carbamimidoylbenzenesulfonamide]: the Ki was 5.76 µM on hCA I, 3.82 µM on hCA II, 1.64 µM on hCA IX [1] and > 10 µM on hCA IV (read-out: hCA IV).

With `CC(=O)n1cc(C=C2N=C(c3ccccc3)N(c3ccc(S(=O)(=O)Nc4ncccn4)cc3)C2=O)c2ccccc21` [10c, 4-[4-((1-Acetyl-1H-indol-3-yl)methylene)-5-oxo-2-phenyl-4,5-dihydro-1H-imidazol-1-yl]-N-(pyrimidin-2-yl)benzenesulfonamide], the Ki (in experiment [2]; at hCA I; at hCA IX [3]; on hCA IV (read-out: hCA IV)) was > 10 µM throughout.

With `CC(=O)n1cc(C=C2N=C(c3ccccc3)N(c3ccc(S(=O)(=O)Nc4nccs4)cc3)C2=O)c2ccccc21` [10e, 4-[4-((1-Acetyl-1H-indol-3-yl)methylene)-5-oxo-2-phenyl-4,5-dihydro-1H-imidazol-1-yl]-N-(thiazol-2-yl)benzenesulfonamide], the Ki (in experiment [2]; at hCA I; at hCA IX [3]; on hCA IV (read-out: hCA IV)) was > 10 µM throughout.

For the compound `O=S(=O)(Nc1nccs1)c1ccc(N=Cc2c[nH]c3ccccc23)cc1` [4e], the Ki (in experiment [2]; on hCA I; at hCA IX [3]; at hCA IV (read-out: hCA IV)) was > 10 µM in each case.

On to `O=C1N=C(Nc2ccc(S(=O)(=O)Nc3ncccn3)cc2)SC1=Cc1c[nH]c2ccccc12` [7c], for which the Ki (in experiment [2]; on hCA I; at hCA IX [3]; on hCA IV (read-out: hCA IV)) was > 10 µM throughout.

Regarding `COc1ccc(C2=NC(=Cc3cn(C(C)=O)c4ccccc34)C(=O)N2c2ccc(S(=O)(=O)NC(=N)N)cc2)cc1` [10l, 4-[4-((1-Acetyl-1H-indol-3-yl)methylene)-2–(4-methoxyphenyl)-5-oxo-4,5-dihydro-1H-imidazol-1-yl]-N-carbamimidoylbenzenesulfonamide], the Ki on hCA I was 6.9 µM; at hCA II, > 10 µM; on hCA IX [1] it was 1.21 µM; at hCA IV (read-out: hCA II) it was > 10 µM.

Take `COc1ccc(C2=NC(=Cc3cn(C(C)=O)c4ccccc34)C(=O)N2c2ccc(S(=O)(=O)Nc3ccccn3)cc2)cc1` [10j, 4-[4-((1-Acetyl-1H-indol-3-yl)methylene)-2–(4-methoxyphenyl)-5-oxo-4,5-dihydro-1H-imidazol-1-yl]-N-(pyridin-2-yl)benzenesulfonamide]: the Ki (in experiment [2]; at hCA I; on hCA IX [3]; on hCA IV (read-out: hCA IV)) was > 10 µM in each case.

As for `CC(=O)NS(=O)(=O)c1ccc(N2C(=O)C(=Cc3cn(C(C)=O)c4ccccc34)N=C2c2ccccc2)cc1` [10b, N-[(4–(4-((1-acetyl-1H-indol-3-yl)methylene)-5-oxo-2-phenyl-4,5-dihydro-1H-imidazol-1-yl)phenyl)sulfonyl]acetamide], the Ki at hCA IX [1] is 1.47 µM; at hCA IV (read-out: hCA IV) it was > 10 µM.

As to `CC(=O)n1cc(C=C2N=C(c3ccccc3)N(c3ccc(S(=O)(=O)Nc4ccccn4)cc3)C2=O)c2ccccc21` [10d], the Ki (in experiment [2]; at hCA I; at hCA IX [3]; at hCA IV (read-out: hCA IV)) was > 10 µM each time.

In the case of `COc1ccc(C2=NC(=Cc3cn(C(C)=O)c4ccccc34)C(=O)N2c2ccc(S(=O)(=O)Nc3nccs3)cc2)cc1` [10k, 4-[4-((1-Acetyl-1H-indol-3-yl)methylene)-2–(4-methoxyphenyl)-5-oxo-4,5-dihydro-1H-imidazol-1-yl]-N-(thiazol-2-yl)benzenesulfonamide], the Ki (in experiment [2]; at hCA I; on hCA IX [3]; at hCA IV (read-out: hCA IV)) was > 10 µM in each case.

`O=S(=O)(Nc1ccccn1)c1ccc(N=Cc2c[nH]c3ccccc23)cc1` [4d]: the Ki (in experiment [2]; at hCA I; on hCA IX [3]; at hCA IV (read-out: hCA IV)) was > 10 µM in each case.

As for `COc1ccc(C2=NC(=Cc3cn(C(C)=O)c4ccccc34)C(=O)N2c2ccc(S(=O)(=O)NC(C)=O)cc2)cc1` [10h, N-[(4–(4-((1-acetyl-1H-indol-3-yl)methylene)-2–(4-methoxyphenyl)-5-oxo-4,5-dihydro-1H-imidazol-1-yl)phenyl)sulfonyl]acetamide], the Ki is 5.72 µM on hCA I, 0.549 µM on hCA II, 1.4 µM on hCA IX [1] and 3.05 µM on hCA IV (read-out: hCA IV).

Regarding `N=C(N)NS(=O)(=O)c1ccc(NC2=NC(=O)C(=Cc3c[nH]c4ccccc34)S2)cc1` [7f, 4-{[5-((1H-indol-3-yl)methylene)-4-oxo-4,5-dihydrothiazol-2-yl]amino}-N-carbamimidoyl benzenesulfonamide], the Ki was 9.07 µM on hCA I, 7.18 µM at hCA II, 1.4 µM on hCA IX [1] and > 10 µM on hCA IV (read-out: hCA IV).

As for `O=C1N=C(Nc2ccc(S(=O)(=O)Nc3ccccn3)cc2)SC1=Cc1c[nH]c2ccccc12` [7d], the Ki (in experiment [2]; on hCA I; on hCA IX [3]; on hCA IV (read-out: hCA IV)) was > 10 µM in each case.

Turning to `COc1ccc(C2=NC(=Cc3cn(C(C)=O)c4ccccc34)C(=O)N2c2ccc(S(=O)(=O)Nc3ncccn3)cc2)cc1` [10i, 4-[4-((1-Acetyl-1H-indol-3-yl)methylene)-2–(4-methoxyphenyl)-5-oxo-4,5-dihydro-1H-imidazol-1-yl]-N-(pyrimidin-2-yl)benzenesulfonamide], the Ki (in experiment [2]; on hCA I; on hCA IX [3]; at hCA IV (read-out: hCA IV)) was > 10 µM in each case.

Turning to `N=C(N)NS(=O)(=O)c1ccc(N=Cc2c[nH]c3ccccc23)cc1` [4f, 4-{[(1H-indol-3-yl)methylene]amino}-N-carbamimidoylbenzenesulfonamide], the Ki on hCA I was 7.53 µM; at hCA II, 8.29 µM; at hCA IX [1], 1.31 µM; on hCA IV (read-out: hCA IV), > 10 µM.
